Assay results as given in patent US4568687A, “N-[2-4-(1H-Imidazol-1-yl)alkyl]-arylamides and pharmaceutical compositions” (American Cyanamid Company, priority 1984, dated 1986).
Counter-ions that a name gives are not always drawn.

biological target: T1, thromboxane synthetase (Rattus norvegicus, UniProt P49430); test: Inhibition of thromboxane (TXB2) formation in washed rat platelets, TXB2 by direct radioimmunoassay; type: cell-based, Okamoto-Aoki spontaneously hypertensive rats (SHR); conditions: 10 min; Dose 10^-4 (unit inferred); SHR platelet suspension, 10 minutes at 37° C.
T1 construct: The platelets were isolated by centrifuging the PRP for 10 minutes; endogenous in cells; host or cells: washed platelets from arterial blood of Okamoto-Aoki spontaneously hypertensive rats (rats from Taconic Farms)
T1 sequence (P49430 1-533): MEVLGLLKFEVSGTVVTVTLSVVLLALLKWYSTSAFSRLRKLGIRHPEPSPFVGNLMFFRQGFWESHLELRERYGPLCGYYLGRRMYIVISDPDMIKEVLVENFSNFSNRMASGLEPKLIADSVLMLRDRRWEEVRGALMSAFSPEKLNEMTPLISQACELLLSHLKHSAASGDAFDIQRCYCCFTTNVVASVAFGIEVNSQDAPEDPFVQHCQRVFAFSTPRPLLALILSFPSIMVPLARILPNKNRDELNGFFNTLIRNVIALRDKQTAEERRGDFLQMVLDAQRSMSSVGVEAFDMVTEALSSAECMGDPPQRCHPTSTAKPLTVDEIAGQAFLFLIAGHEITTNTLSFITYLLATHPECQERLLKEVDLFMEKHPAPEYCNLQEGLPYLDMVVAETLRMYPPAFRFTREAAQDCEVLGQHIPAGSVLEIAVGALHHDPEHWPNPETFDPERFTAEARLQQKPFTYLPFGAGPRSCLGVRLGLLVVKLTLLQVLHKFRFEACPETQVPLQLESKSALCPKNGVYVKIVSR
Protocol: Under urethan anesthesia, […] of arterial blood was collected in one ml. of 3.2% sodium citrate in a polystyrene tube from Okamoto-Aoki spontaneously hypertensive rats (SHR) (Taconic Farms, Germantown, NY) between 19 and 24 weeks in age. The blood was diluted with 3 ml. cold saline and centrifuged at room temperature for 15 minutes at 460×g. The platelet rich plasma (PRP) was separated. The platelets were isolated by centrifuging the PRP for 10 minutes at 1060×g and were washed in 4 ml. cold oxygenated Krebs phosphate buffer, pH 7.4. The chilled patelets recovered from centrifuging at 800×g for 10 minutes were resuspended in oxygenated Krebs phosphate buffer and diluted to contain 4.5-6.0×10^4 platelets/μl.
The inhibition of thromboxane (TX) formation was studied by determining the […] of thromboxane B2 (TXB2), the stable hydrolysis product of TXA2. Assay samples, prepared on ice, contained 200 μl platelet suspension, 50 μl saline, and 50 μl vehicle or drug under study (OKY-1581, UK-37248-01, 1-benzylimidazole, or indomethacin). The samples were incubated for 10 minutes at 37° C. in a metabolic shaker. The reaction was terminated by immersing the tubes in an ice bath and adding 50 μl of 0.5M citric acid. The samples were centrifuged for 10 minutes in a refrigerated centrifuge and the supernatants thus obtained were decanted and stored at -20° C. The TXB2 content for each sample was determined by a direct radioimmunoassay (RIA) utilizing a TXB2 specific RIA kit purchased from New England Nuclear, Boston, MA and expressed as pg TXB2 formed minute^-1 sample^-1, from which the percent inhibition of TXB2 formation was calculated.

Going from `O=C(COc1cccc(Cl)c1Cl)NCCCn1ccnc1` [2-(2,3-dichlorophenoxy)-N--[3-(1H--imidazol-1-yl)propyl]acetamide, fumarate] to `O=C(COc1ccc(Cl)cc1)NCCCn1ccnc1` [2-(4-chlorophenoxy)-N--[3-(1H--imidazol-1-yl)propyl]acetamide], the inhibition at 100 µM falls from 100% to 84.6%.

First: O=C1c2ccccc2C(=O)N1CCCCCn1ccnc1 [2-[5-(1H--imidazol-1-yl)pentyl]-1H--isoindole-1,3(2H)--dione]
Second: O=C(NCCCCn1ccnc1)c1cccc2ccccc12 [N--[4-(1H--imidazol-1-yl)butyl]-naphthalene-1-carboxamide]
The inhibition at 100 µM of the first is lower: 92% for the first, 95% for the second.

Compared with `O=C(NCCCn1ccnc1)c1ccccc1Cl` [2-chloro-N--[3-(1H--imidazol-1-yl)propyl]benzamide], `O=C(NCCCn1ccnc1)c1ccccc1F` [2-fluoro-N--[3-(1H--imidazol-l-yl)propyl]benzamide] is lower in inhibition at 100 µM: 99.7% for the first, 83.9% for the second.

Going from `CCNc1ccccc1C(=O)NCCCn1ccnc1` [2-ethylamino-N--[3-(1H--imidazol-1-yl)propyl]benzamide] to `CNc1ccccc1C(=O)NCCCn1ccnc1` [N--[3-(1H--imidazol-1-yl)propyl]-2-methylaminobenzamide], the inhibition at 100 µM falls from 86% to 57%.

Compared with `O=C(NCCCCn1ccnc1)c1ccc(Cl)c(Cl)c1` [3,4-Dichloro-N-[4-(1H-imidazol-1-yl)butyl]benzamide], `O=C(NCCCn1ccnc1)c1ccc(Cl)c(Cl)c1` [3,4-dichloro-N--[3-(1H--imidazol-1-yl)propyl]benzamide] is lower in inhibition at 100 µM: 100% for the first, 92.7% for the second.

Compared with `O=C(NCCn1ccnc1)c1ccc(Cl)c(Cl)c1` [3,4-dichloro-N--[2-(1H--imidazol-1-yl)ethyl]benzamide], `O=C(NCCCn1ccnc1)c1cccc(F)c1` [3-fluoro-N--[3-(1H--imidazol-1-yl)propyl]benzamide] is higher in inhibition at 100 µM: 58.5% for the first, 95.8% for the second.

Going from `Cc1cn(CCCNC(=O)c2cccc(Br)c2)cn1` [3-bromo-N--[3-(4-methyl-1H--imidazol-1-yl)propyl]benzamide] to `Cc1cn(CCCNC(=O)c2ccc(I)cc2)cn1` [4-iodo-N--[3-(4-methyl-1H--imidazol-1-yl)propyl]benzamide], the inhibition at 100 µM rises from 93% to 99%.

Compared with `CC(CCNC(=O)c1cccc(Cl)c1)n1ccnc1` (centres unmarked) [3-chloro-N--[3-(1H--imidazol-1-yl)butyl]benzamide], `CC(CCNC(=O)c1ccc(Cl)cc1)n1ccnc1` (centres unmarked) [4-chloro-N--[3-(1H--imidazol-1-yl)butyl]benzamide] is higher in inhibition at 100 µM: 93% for the first, 96% for the second.

Going from `O=C(NCCCn1ccnc1)c1cccc(C(F)(F)F)c1` [3-trifluoromethyl-N--[3-(1H--imidazol-1-yl)propyl]benzamide] to `O=C(NCCCn1ccnc1)c1ccc(F)cc1` [4-fluoro-N--[3-(1H--imidazol-1-yl)propyl]benzamide], the inhibition at 100 µM rises from 84% to 87.1%.

First: CC(=O)Nc1ccc(C(=O)NCCCn2ccnc2)cc1 [4-(acetylamino)-N--[3-(1H--imidazol-1-yl)propyl]benzamide]
Second: CC(=O)c1ccc(C(=O)NCCCn2ccnc2)cc1 [4-acetyl-N--[3-(1H--imidazol-1-yl)propyl]benzamide]
The inhibition at 100 µM of the first is higher: 98.7% for the first, 89.5% for the second.

Going from `O=C(NCCCn1cnc(-c2ccccc2)c1)c1ccc(Br)cc1` [4-Bromo-N-[3-(4-phenyl-1H-imidazol-1-yl)propyl]benzamide] to `O=C(NCCCn1ccnc1)c1ccc(-c2ccccc2)cc1` [N--[3-(1H--imidazol-1-yl)propyl][1,1'-biphenyl]-4-carboxamide], the inhibition at 100 µM rises from 66% to 106%.

Compared with `O=C(NCCCn1ccnc1)c1ccc(C(=O)c2ccccc2)cc1` [4-benzoyl-N--[3-(1H--imidazol-1-yl)propyl]benzamide], `O=C(NCCCn1ccnc1)C(=O)c1ccccc1` [N-[3-(1H-Imidazol-1-yl)propyl]-α-oxo-benzeneacetamide, fumarate] is lower in inhibition at 100 µM: 103% for the first, 79.7% for the second.

`O=C(NC(CCn1ccnc1)c1ccccc1)c1ccc(Br)cc1` (centres unmarked) [4-bromo-N--[3-(1H--imidazol-1-yl)-1-phenylpropyl]benzamide] and `O=C(NC(CCn1ccnc1)c1ccccc1)c1ccc(Cl)cc1` (centres unmarked) [4-chloro-N--[3-(1H--imidazol-1-yl)-1-phenylpropyl]benzamide] are the same in inhibition at 100 µM: 100% for the first, 100% for the second.

Going from `CC(CCNC(=O)c1ccc(Br)cc1)n1ccnc1` (centres unmarked) [4-bromo-N--[3-(1H--imidazol-1-yl)butyl]benzamide] to `Cc1ccc(C(=O)NCCCn2ccnc2)cc1` [N--[3-(1H--imidazol-1-yl)propyl]-4-methylbenzamide], the inhibition at 100 µM falls from 91% to 83.2%.

Going from `CC(CNC(=O)c1ccc(Cl)cc1)Cn1ccnc1` (centres unmarked) [4-chloro-N--[3-(1H--imidazol-1-yl)-2-methylpropyl]benzamide fumarate] to `O=C(NCCCn1ccnc1)c1ccc(I)cc1` [N--[3-(1H--imidazol-1-yl)propyl]-4-iodobenzamide], the inhibition at 100 µM falls from 100% to 96.7%.

First: N#Cc1ccc(C(=O)NCCCn2ccnc2)cc1 [4-cyano-N--[3-(1H--imidazol-1-yl)propyl]benzamide]
Second: CSc1ccc(C(=O)NCCCn2ccnc2)cc1 [N--[3-(1H--imidazol-1-yl)propyl]-4-(methylthio)-benzamide]
The inhibition at 100 µM of the first is lower: 90.7% for the first, 102% for the second.

Compared with `O=C(Cc1ccc(F)cc1)NCCCn1ccnc1` [4-fluoro-N--[3-(1H--imidazol-1-yl)propyl]benzeneacetamide, fumarate], `Cc1ccc(CC(=O)NCCCn2cnc(C)c2)cc1` [4-methyl-N--[3-(4-methyl-1H--imidazol-1-yl)propyl]phenylacetamide] is higher in inhibition at 100 µM: 53.1% for the first, 76% for the second.

Compared with `COc1cc(C(=O)NCCCn2ccnc2)cc(OC)c1OC` [N--[3-(1H--imidazol-1-yl)propyl]-3,4,5-trimethoxybenzamide], `COc1ccc(C(=O)NCCCn2ccnc2)cc1` [N--[3-(1H--imidazol-1-yl)propyl]-4-methoxybenzamide] is lower in inhibition at 100 µM: 101% for the first, 88.9% for the second.

First: CN(C)c1ccc(C(=O)NCCCn2ccnc2)cc1 [N--[3-(1H--imidazol-1-yl)propyl]-4-(dimethylamino)benzamide]
Second: CS(=O)(=O)c1ccc(C(=O)NCCCn2ccnc2)cc1 [N--[3-(1H--imidazol-1-yl)propyl]-4-(methylsulfonyl)benzamide]
The inhibition at 100 µM of the first is higher: 93% for the first, 80.1% for the second.

Compared with `O=C(NCCCn1ccnc1)C1c2ccccc2-c2ccccc21` [N--[3-(1H--imidazol-1-yl)propyl]-9H--fluorene-9-carboxamide], `O=C(NCCCn1ccnc1)C(c1ccccc1)c1ccccc1` [N-[3-(1H-imidazol-1-yl)propyl]diphenylacetamide] is lower in inhibition at 100 µM: 100% for the first, 84% for the second.

`O=C(COc1ccccc1)NCCCn1ccnc1` [N-[3-(1H-Imidazol-1-yl)propyl]-2-phenoxyacetamide] was tested, and the inhibition at 100 µM was 86.2%.
